Counter-ions that a name gives are not always drawn.
Tests used:
hSERT = hSERT (Homo sapiens, UniProt P31645); assay: SERT radioligand binding assay ([125I]RTI-55, HEK-hSERT membranes); conditions: HEK-293 hSERT membranes, 260 pM [125I]RTI-55, 1 hour at room temperature; read-out: SERT IC50
Experimental: (§1) NK-1 Binding assay. Crude membrane suspensions were prepared for the NK1 and SERT radioligand binding assays from U373 cells or recombinant HEK-293 cells expressing hSERT, respectively. Cells were harvested from T-175 flasks as follows. The medium is removed from the flasks and the cells rinsed with HBSS without Ca and without Mg. The cells are then incubated for 5-10 minutes in 10 mM Tris-Cl, pH 7.5, 5 mM EDTA before the cells are lifted with a combination of pipetting and scraping, as needed. To prepare membranes, the cell suspension is collected into centrifuge bottles and homogenized for 30 seconds with a Polytron homogenizer. The suspension is centrifuged for 30 min@32,000×g, 4° C., then the supernatant is decanted and the pellet resuspended and homogenized in 50 mM Tris-Cl, pH 7.5, 1 mM EDTA for 10 seconds. The suspension is then centrifuged again for 30 min@32,000×g, 4° C. The supernatant is decanted and the pellet resuspended in 50 mM Tris-Cl, pH 7.5, 1 mM EDTA and briefly homogenized. A Bradford assay (Bio-rad) is performed and the membrane preparation diluted to 2 mg/ml with 50 mM Tris-Cl, pH 7.5, 1 mM EDTA. Aliquots are prepared, and then frozen and stored at −80° C.
SERT radioligand binding assay. Compounds are dissolved in 100% DMSO at a concentration 100× the desired highest assay concentration, serially diluted 1:3 in 100% DMSO, and 0.4 ul/well of each solution is dispensed to a Nunc polypropylene, round bottom, 384 well plate. 100% inhibition is defined with 0.4 ul/well of 1 mM fluoxetine (Sigma F-132) dissolved in DMSO. 20 ul/well of a 2× HEK-hSERT membrane preparation (15 ug/ml in 50 mM Tris-Cl, pH 7.5, 120 mM NaCl, 5mM KCl) and 20 ul/well of a 2× radioligand solution (520 pM [^125I]RTI-55 (Perkin-Elmer NEX-272) in 50 mM Tris-Cl, pH 7.5, 120 mM NaCl, 5mM KCl) are added to each well and the reaction incubated for 1 hour at room temperature. The contents of the assay plate are then transferred to a Millipore MultiscreenHTs GF/B filter plate which has been pretreated with 0.5% PEI for at least one hour. The plate is vacuum filtered and washed with 7 washes of 100 ul/well of 50 mM Tris-Cl, pH 7.5, 120 mM NaCl, 5 mM KCl chilled to 4° C. The filtration and washing is completed in less than 90 s. The plates are air-dried overnight, 12 ul/well of MicroScint scintillation fluid added, and the plates counted in a Trilux.
(§2) Data analysis. The raw data are normalized to percent inhibition using control wells defining 0% (DMSO only) and 100% (selective inhibitor) inhibition which are run on each plate. Each plate is run in triplicate, and the concentration response curve thus generated is fit using the four-parameter dose response equation, Y=Bottom+(Top-Bottom)/(1+10^((LogIC50−X)*HillSlope)) in order to determine the IC50 value for each compound. The radioligand concentration chosen for each assay corresponds to the Kd concentration determined through saturation binding analysis for each assay.

NK-1 = molecular target: T1, NK-1 (Homo sapiens, UniProt P25103); assay: NK1 radioligand binding assay ([125I]Substance P, U373 membranes); conditions: U373 cell membranes, 200 pM [125I]Substance P, 1 hour at room temperature
T1 construct: 30 ul/well of a 2×U373 membrane preparation
Experimental: as §1
NK1 radioligand binding assay. Compounds are dissolved in 100% DMSO at a concentration 100× the desired highest assay concentration, serially diluted 1:3 in 100% DMSO, and 0.6 ul/well of each solution is dispensed to a Nunc polypropylene, round bottom, 384 well plate. 100% inhibition is defined with 0.6 ul/well of 1 mM L-733,060 (Sigma L-137) dissolved in DMSO. 30 ul/well of a 2×U373 membrane preparation (267 ug/ml in 100 mM Tris-Cl, pH 7.5, 6 mM MgCl2, 0.2% (v/v) Sigma mammalian protease inhibitor cocktail (Sigma P-8340), and 4 ug/ml chymostatin, Sigma C-7268) and 30 ul/well of a 2× radioligand solution (400 pM [^125I]Substance P (Perkin ElmerNEX-190) in 1% (w/v) BSA (Sigma A-2153), 0.1 mg/ml bacitracin, Sigma B-0125) are added to the well and the reaction incubated for 1 hour at room temperature. The contents of the assay plate are then transferred to a Millipore MultiscreenHTS GF/B filter plate which has been pretreated with 0.5% PEI for at least one hour. The plate is vacuum filtered and washed with 7 washes of 100 ul/well of 20 mM Tris-Cl, pH 7.5, 0.5% (w/v) BSA chilled to 4° C. The filtration and washing is completed in less than 90 s. The plates are air-dried overnight, 12 ul/well of MicroScint scintillation fluid added, and the plates counted in a Trilux.
as §2

T1 sequence (P25103 whole entry): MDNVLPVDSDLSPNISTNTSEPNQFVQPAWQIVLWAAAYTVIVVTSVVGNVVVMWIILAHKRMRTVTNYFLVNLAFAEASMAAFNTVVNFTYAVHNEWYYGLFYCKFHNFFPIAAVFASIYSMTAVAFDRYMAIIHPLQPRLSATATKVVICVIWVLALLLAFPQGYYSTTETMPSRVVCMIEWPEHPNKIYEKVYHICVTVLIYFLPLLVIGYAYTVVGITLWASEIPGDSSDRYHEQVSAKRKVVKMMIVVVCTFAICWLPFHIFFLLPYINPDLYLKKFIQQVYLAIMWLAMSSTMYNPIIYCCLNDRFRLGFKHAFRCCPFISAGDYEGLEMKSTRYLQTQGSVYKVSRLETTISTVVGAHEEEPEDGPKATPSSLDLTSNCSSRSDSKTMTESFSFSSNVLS
Sequence of hSERT (P31645 whole entry): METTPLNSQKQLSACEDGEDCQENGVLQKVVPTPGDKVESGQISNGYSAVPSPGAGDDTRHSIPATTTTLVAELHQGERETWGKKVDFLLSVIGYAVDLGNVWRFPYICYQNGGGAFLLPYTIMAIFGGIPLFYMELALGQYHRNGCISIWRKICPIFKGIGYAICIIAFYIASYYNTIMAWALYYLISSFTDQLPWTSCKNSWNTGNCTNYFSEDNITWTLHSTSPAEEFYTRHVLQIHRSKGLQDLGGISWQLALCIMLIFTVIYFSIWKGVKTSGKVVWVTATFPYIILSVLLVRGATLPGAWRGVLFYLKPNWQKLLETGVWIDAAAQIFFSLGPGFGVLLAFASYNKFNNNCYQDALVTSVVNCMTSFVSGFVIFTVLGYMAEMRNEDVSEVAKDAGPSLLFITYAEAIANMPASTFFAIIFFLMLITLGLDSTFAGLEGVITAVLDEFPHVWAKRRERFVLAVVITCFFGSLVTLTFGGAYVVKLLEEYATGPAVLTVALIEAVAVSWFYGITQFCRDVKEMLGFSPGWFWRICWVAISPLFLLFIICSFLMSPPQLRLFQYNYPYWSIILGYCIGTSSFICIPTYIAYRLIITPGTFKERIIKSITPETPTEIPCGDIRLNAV

Row | SMILES | IC50 (hSERT) | IC50 (NK-1)
1 | Cc1cc(C(C)OCC2(c3ccc(F)cc3)CCN(C)CC2)c2nn(CC(F)F)cc2c1 (racemic) [Example 61, (±)-2-(2,2-Difluoroethyl)-7-(1-((4-(4-fluorophenyl)-1-methylpiperidin-4-yl)methoxy)ethyl)-5-methyl-2H-indazole] | 0.01 to 100 nM | 0.01 to 100 nM
2 | Cc1cc(C(C)OCC2(c3ccc(F)cc3)CCN(C)CC2)c2c(cnn2CC2CC2)c1 (racemic) [Example 62, (±)-1-(Cyclopropylmethyl)-7-(1-((4-(4-fluorophenyl)-1-methylpiperidin-4-yl)methoxy)ethyl)-5-methyl-1H-indazole] | 0.01 to 100 nM | 0.01 to 100 nM
3 | Cc1cc(C(C)OCC2(c3ccc(F)cc3)CCN(C)CC2)c2nn(CC3CC3)cc2c1 (racemic) [Example 63, (±)-2-(Cyclopropylmethyl)-7-(1-((4-(4-fluorophenyl)-1-methylpiperidin-4-yl)methoxy)ethyl)-5-methyl-2H-indazole] | 0.01 to 100 nM | 0.01 to 100 nM
4 | Cc1cc(C(C)OCC2(c3ccc(F)cc3)CCN(C)CC2)c2c(cnn2C2CC2)c1 (racemic) [Example 64, (±)-1-Cyclopropyl-7-(1-((4-(4-fluorophenyl)-1-methylpiperidin-4-yl)methoxy)ethyl)-5-methyl-1H-indazole] | 0.01 to 100 nM | 0.01 to 100 nM
5 | CC(OCC1(c2ccccc2)CCN(C)CC1)c1cc(C(F)(F)F)cc2cc[nH]c12 (racemic) [Example 70, (±)-7-(1-((1-Methyl-4-phenylpiperidin-4-yl)methoxy)ethyl)-5-(trifluoromethyl)-1H-indole] | 100 to 300 nM | 0.01 to 100 nM
6 | CC(OCC1(c2ccccc2)CCN(C)CC1)c1cc(C(F)(F)F)cc2ccn(C)c12 (racemic) [Example 71, (±)-1-Methyl-7-(1-((1-methyl-4-phenylpiperidin-4-yl)methoxy)ethyl)-5-(trifluoromethyl)-1H-indole] | 0.01 to 100 nM | 0.01 to 100 nM
7 | CC(OCC1(c2ccc(F)cc2)CCN(C)CC1)c1cc(C(F)(F)F)cc2cc[nH]c12 (racemic) [Example 72, (±)-7-(1-((4-(4-Fluorophenyl)-1-methylpiperidin-4-yl)methoxy)ethyl)-5-(trifluoromethyl)-1H-indole] | 0.01 to 100 nM | 0.01 to 100 nM
8 | CC(OCC1(c2ccc(F)cc2)CCN(C)CC1)c1cc(C(F)(F)F)cc2ccn(C)c12 (racemic) [Example 73, (±)-7-(1-((4-(4-Fluorophenyl)-1-methylpiperidin-4-yl)methoxy)ethyl)-1-methyl-5-(trifluoromethyl)-1H-indole] | 0.01 to 100 nM | 0.01 to 100 nM
9 | CC(OCC1(c2ccc(F)cc2)CCN(C)CC1)c1cc(C(F)(F)F)cc2c1NC(=O)C2 (racemic) [Example 123, (±)-7-(1-((4-(4-fluorophenyl)-1-methylpiperidin-4-yl)methoxy)ethyl)-5-(trifluoromethyl)indolin-2-one] | 0.01 to 100 nM | 0.01 to 100 nM
10 | CC(OCC1(c2ccc(F)cc2)CCN(C)CC1)c1cc(Cl)cc2c(C#N)c[nH]c12 (racemic) [Example 124, (±)-5-chloro-7-(1-((4-(4-fluorophenyl)-1-methylpiperidin-4-yl)methoxy)ethyl)-1H-indole-3-carbonitrile] | 0.01 to 100 nM | 0.01 to 100 nM
11 | Cc1c[nH]c2c(C(C)OCC3(c4ccc(F)cc4)CCN(C)CC3)cc(C(F)(F)F)cc12 (racemic) [Example 126, (±)-7-(1-((4-(4-fluorophenyl)-1-methylpiperidin-4-yl)methoxy)ethyl)-3-methyl-5-(trifluoromethyl)-1H-indole] | 0.01 to 100 nM | 0.01 to 100 nM
12 | CC(OCC1(c2ccc(F)cc2)CCN(C)CC1)c1cc(C(F)(F)F)cc2c1ccn2C (racemic) [Example 127, (±)-4-(1-((4-(4-fluorophenyl)-1-methylpiperidin-4-yl)methoxy)ethyl)-1-methyl-6-(trifluoromethyl)-1H-indole] | 0.01 to 100 nM | 0.01 to 100 nM
13 | CC(OCC1(c2ccc(F)cc2)CCN(C)CC1)c1cc(C(F)(F)F)cc2[nH]ccc12 (racemic) [Example 128, (±)-4-(1-((4-(4-fluorophenyl)-1-methylpiperidin-4-yl)methoxy)ethyl)-6-(trifluoromethyl)-1H-indole] | 0.01 to 100 nM | 0.01 to 100 nM
14 | CC(OCC1(c2ccc(F)cc2)CCNCC1)c1cc(C(F)(F)F)cc2c1CC(=O)N2 (racemic) [Example 129, (±)-4-(1-((4-(4-fluorophenyl)piperidin-4-yl)methoxy)ethyl)-6-(trifluoromethyl)indolin-2-one, TFA] | 0.01 to 100 nM | 100 to 300 nM
15 | CC(OCC1(c2ccc(F)cc2)CCNCC1)c1cc(C(F)(F)F)cc2cn[nH]c12 (single isomer, unassigned) [Example 22, 7-(1-((4-(4-Fluorophenyl)piperidin-4-yl)methoxy)ethyl)-5-(trifluoromethyl)-1H-indazole] | 0.01 to 100 nM | 100 to 300 nM
16 | CC(OCC1(c2ccc(F)cc2)CCN(C)CC1)c1cc(C(F)(F)F)cc2cn[nH]c12 (single isomer, unassigned) [Example 23, 7-(1-((4-(4-Fluorophenyl)-1-methylpiperidin-4-yl)methoxy)ethyl)-5-(trifluoromethyl)-1H-indazole] | 0.01 to 100 nM | 100 to 300 nM
17 | CC(OCC1(c2ccc(F)cc2)CCNCC1)c1cc(C(F)(F)F)cc2cn[nH]c12 (single isomer, unassigned) [Example 24, 7-(1-((4-(4-Fluorophenyl)piperidin-4-yl)methoxy)ethyl)-5-(trifluoromethyl)-1H-indazole] | 0.01 to 100 nM | 0.01 to 100 nM
18 | CC(OCC1(c2ccc(F)cc2)CCN(C)CC1)c1cc(C(F)(F)F)cc2cn[nH]c12 (single isomer, unassigned) [Example 25, 7-(1-((4-(4-Fluorophenyl)-1-methylpiperidin-4-yl)methoxy)ethyl)-5-(trifluoromethyl)-1H-indazole] | 0.01 to 100 nM | 0.01 to 100 nM
19 | CC(OCC1(c2ccc(F)cc2)CCNCC1)c1cc(C(F)(F)F)cc2cnn(C)c12 (single isomer, unassigned) [Example 26, 7-(1-((4-(4-Fluorophenyl)piperidin-4-yl)methoxy)ethyl)-1-methyl-5-(trifluoromethyl)-1H-indazole] | 0.01 to 100 nM | 100 to 300 nM
20 | CC(OCC1(c2ccc(F)cc2)CCN(C)CC1)c1cc(C(F)(F)F)cc2cnn(C)c12 (single isomer, unassigned) [Example 27, 7-(1-((4-(4-Fluorophenyl)-1-methylpiperidin-4-yl)methoxy)ethyl)-1-methyl-5-(trifluoromethyl)-1H-indazole] | 0.01 to 100 nM | 100 to 300 nM
21 | CC(OCC1(c2ccc(F)cc2)CCNCC1)c1cc(C(F)(F)F)cc2cn(C)nc12 (single isomer, unassigned) [Example 28, 7-(1-((4-(4-Fluorophenyl)piperidin-4-yl)methoxy)ethyl)-2-methyl-5-(trifluoromethyl)-2H-indazole] | 100 to 300 nM | > 300 nM
